The test system of data set [1] is sting (Belonolaimus longicaudatus) nematodes. As to the kind of experiment: Sting nematode bench top soil assay. It counts as in vivo. As to the method:
Populations of sting (Belonolaimus longicaudatus) nematodes are maintained on St. Augustine turf grass on soil in 15-cm pots. At test initiation the turf is removed from the pots and the soil containing nematode eggs, juveniles, and adults is subdivided into pots each containing a volume of 125 cm^3′ The compounds to be tested are dissolved in 3 ml of acetone using 3, 6, or 15 mg to achieve equivalent surface area application rates of 2, 4, or 10 kg/ha, respectively. The 3 ml acetone stock solution is added to 30 ml of water, and 5 ml of that solution is used to drench each of 6 replicate test pots prepared as described above. The treated pots containing nematodes are incubated in the laboratory at ambient temperature of approximately 25° C. After 3 days the soil from each pot is washed onto a modified Baermann apparatus comprised of a screen supporting a layer of filter paper on which the soil sample is placed and set in a dish of water. The samples are then incubated at 25° C. for 24 hours to allow the live nematodes to migrate through the paper and screen and into a water reservoir to be collected for counting with a light microscope. Nematodes that have been killed or immobilized by the test compounds are not able to migrate into the reservoir.

Data set [2] deals with CD-1/Swiss derived albino mice. In kind it is in vivo. As to conditions: for mortality, signs of gross toxicity and behavioral changes: three female mice, observed up to 14 days. As to the method:
Acute oral toxicity testing was performed in mice in accordance with test method P203.UDP, as administered by Eurofins/Product Safety Laboratories (Dayton, N.J.). CD-1/Swiss derived albino mice were obtained and group housed in suspended solid bottom caging. The mice were fed rodent chow and filtered tap water was supplied ad libitum. Following acclimation to the laboratory setting, a group of animals was fasted overnight by removing food from the cages. After the fasting period, three female mice were selected based on vitality and initial body weights. The individual compound doses were calculated from these body weights.
The test substance was prepared as a 1% (50 mg/kg) or 5% (500 mg/kg) weight to weight (w/w) mixture in a 0.5% w/w solution of carboxymethylcellulose (CMC) in distilled water. A tissue homogenizer was used to create a homogeneous mixture. A dose of 50 or 500 mg/kg was administered to three healthy mice per dose level by oral intubation using a ball-tipped gavage needle attached to a syringe. After administration, the animals were returned to their cages, and feed was replaced immediately after dosing.
Body weights were recorded prior to initiation and on Days 7 and 14 or a soon as possible after death.

The subject of data set [3] is Meloidogyne incognita (RKN). The data set is described as follows: Seed treatment test of root knot nematode on cucumber plants. It counts as in vivo. As to conditions: 20 mg ai/gram seed, cucumber seeds. On the procedure: For a given concentration the chemical is dissolved in 500 ul of acetone and one gram of cucumber seed (RKN test) or soybean seed (SCN test) is added (e.g., 20 mg active ingredient in 500 ul acetone plus 1 gram of seed). The seed solutions are agitated until all seeds were thoroughly covered with the chemical solution. The acetone is then allowed to evaporate by air drying the seeds. The seeds are planted in 2-inch pots containing sandy soil and then the pots are inoculated with 1000 Meloidogyne incognita (RKN) or 1000 Heterodera glycines (SCN) eggs per pot three days after planting. Plants are rated for galling 14 days after egg inoculation for RKN or 28 days after egg inoculation for SCN.

Data set [4] concerns caspase-3 in rat hepatoma derived H4IIE cells. As to the kind of experiment: Caspase-3 activity (DEVD-AMC) after compound exposure in H4IIE cells. In kind it is cell-based. As to conditions: concentrations up to 300 μM. As to the method:
Caspase 3 cleaves the tetrapeptide between D and AMC, thus releasing the fluorogenic […] AMC. Following the test article exposure to cells in 96-well plates, medium was aspirated from plates and PBS added to each well. Plates were stored at −80° C. to lyse cells and store samples until further analysis. On the day of analysis, plates were removed from freezer and thawed. Caspase buffer with fluorescent substrate was added to each well and incubated at room temperature for one hour. AMC release was measured in a spectrofluorometer at an excitation wavelength of 360 nm and an emission wavelength of 460 nm. Values are expressed as relative fluorescent units (RFU).

A further data set has as its system Meloidogyne incognita. As to the kind of experiment: Summer field evaluation of pre-plant incorporated compounds on squash. It counts as in vivo. Put shortly: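 PPI simulation: compound in acetone/Triton X-100 and water mixed into 80% sand/20% silt loam with chopped galled tomato roots, filling top 15 cm of 6 replicate field plots. M. incognita eggs/larvae (100 k per plot) injected 5 cm deep; three-week-old squash cv. Liberator III planted 4 days after treatment.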

The subject of data set [5] is Caenorhabditis elegans ced-3(n717) and ced-4(N1162) mutants. As to the kind of experiment: Susceptibility of apoptosis-defective C. elegans mutants on NGM agar plates. Conditions: 10 μg/ml on NGM agar plates. It counts as in vivo.

Where two headings read alike, the source gives them in different places.

On to `CCOP(=O)(NC(C)C)Oc1ccc(SC)c(C)c1` (stereo not drawn) [Fenamiphos, fenamiphos, reference compound], for which, in data set [1] (Other: 11.1 kg fenamiphos as positive control), the “Number of nematodes recovered from treated soil after 3 days incubation with the compound” value is 20.
On to `c1ccc(-c2noc(-c3cccs3)n2)cc1` [compound 1822], for which the “mortality, signs of gross toxicity and behavioral changes” value in data set [2] (50 mg/kg oral) was “all animals survived, gained body weight, and appeared active and healthy”; in data set [2] (500 mg/kg oral) it was “all animals died within three days”. Besides, in data set [3], the “percent control (galling reduction) relative to the control blank treatment” value is 76%. Besides, the “induction of caspase-3 (apoptosis marker)” value in data set [4] is recorded as “no induction of caspase-3”.
Consider `Brc1ccc(-c2cnc(-c3cccs3)o2)cc1` [compound 4776], for which the “Number of nematodes recovered from treated soil after 3 days incubation with the compound” value in data set [1] (2 kg/ha) turned out to be 16; in data set [1] (4 kg/ha) it was 19; in data set [1] (10 kg/ha) it was 20. Also, the “mortality, signs of gross toxicity and behavioral changes” value in data set [2] (500 mg/kg oral) is given as “two animals died within three days”. For the same compound, the oral toxicity result in data set [2] (mice, oral, estimate based on the 50 and 500 mg/kg studies) was “lower than 500 mg/kg”. In data set [3], the “percent control (galling reduction) relative to the control blank treatment” value is 58%.
`Cc1cc(Cl)ccc1-c1noc(-c2ccco2)n1` [compound 5823]: in the data set with Meloidogyne incognita (4 kg (kg/ha) PPI, squash), the “0-3 vigor 16 DAP” value is 3.0, the “0-3 vigor 21 DAP” value is given as 3.0, the “feeder root (3 = ave) 31 DAP” value is reported as 2.7 and the “gall % 31 DAP” value stood at 3%. For the same compound, in the data set on Meloidogyne incognita (4 kg (kg/ha) PPI, squash), the “root wgt (g) 31 DAP” value turned out to be 22.6 g, the “top wgt (lbs) 31 DAP” value amounted to 1.45 lbs and the “total fruit (lbs)” value is 1.44 lbs. Also, the “control of M. incognita (in words)” value in the data set on Meloidogyne incognita (PPI application at 4 kg/ha) is given as “excellent control”. Further, the “induction of caspase-3 (apoptosis marker)” value in data set [4] is “no induction of caspase-3”. The “difference in susceptibility between wild-type (N2 Bristol) and ced-3 and ced-4 mutants, including time to mortality” value in data set [5] is listed as “No observable phenotypic difference in susceptibility”.
